Experimental data reported in US20070049564A1 (Wyeth, priority 2005, published 2007).
≈ marks a conversion by molar mass, not a printed value. Like-named read-outs stand apart in the source and are kept apart here.

Legend:
[1] = test system: E. coli GC 2236; test: MIC, broth microdilution; details: Escherichia coli
[2] = test system: E. coli GC 2231; test: MIC, broth microdilution; details: Escherichia coli
[3] = test system: E. coli GC 2232; test: MIC, broth microdilution; details: Escherichia coli
[4] = test system: E. coli GC 2233; test: MIC, broth microdilution; details: Escherichia coli
[5] = test system: E. coli GC 2234; test: MIC, broth microdilution; details: Escherichia coli
[6] = test system: E. coli GC 2270; test: MIC, broth microdilution; details: Escherichia coli
[7] = test system: E. coli GC 2271; test: MIC, broth microdilution; details: Escherichia coli
[8] = test system: E. coli GC 3226; test: MIC, broth microdilution; details: Escherichia coli
[9] = test system: E. coli GC 2203; test: MIC, broth microdilution; details: Escherichia coli
[10] = test system: P. aeruginosa GC 2214; test: MIC, broth microdilution; details: Pseudomonas aeruginosa
[11] = test system: S. aureus GC 6466; test: MIC, broth microdilution; details: Staphylococcus aureus
[12] = test system: S. aureus GC 2216; test: MIC, broth microdilution; details: Staphylococcus aureus
[13] = test system: S. aureus GC 6335; test: MIC, broth microdilution; details: Staphylococcus aureus
[14] = test system: S. aureus GC 6469; test: MIC, broth microdilution; details: Staphylococcus aureus
[15] = test system: E. faecalis GC 2265; test: MIC, broth microdilution; details: Enterococcus faecalis
[16] = test system: E. faecium GC 4556; test: MIC, broth microdilution; details: Enterococcus faecium
[17] = test system: E. faecium GC 2243; test: MIC, broth microdilution; details: Enterococcus faecium
[18] = test system: S. pyogenes GC 4563; test: MIC, broth microdilution; details: Streptococcus pyogenes
[19] = test system: E. coli; test: Range of MIC for E. coli strains; details: Escherichia coli
[20] = test system: Staph.; test: Range of MIC for Staph. strains, including MRSA; details: Staphylococcus aureus

- MIC ([1]; GC2236, read-out: MINIMAL INHIBITORY CONCENTRATION MIC, pre-incubated in Human Serum): > 64 µg/mL
- MIC ([1]; GC2236, read-out: MINIMAL INHIBITORY CONCENTRATION MIC, pre-incubated in Mouse Serum): 2 µg/mL (≈ 2.64 µM)
- MIC ([1]; GC2236, read-out: MINIMAL INHIBITORY CONCENTRATION MIC, pre-incubated in Water): > 64 µg/mL
- MIC ([2]; GC2231, read-out: MINIMAL INHIBITORY CONCENTRATION MIC, pre-incubated in Human Serum): > 64 µg/mL
- MIC ([2]; GC2231, read-out: MINIMAL INHIBITORY CONCENTRATION MIC, pre-incubated in Mouse Serum): 2 µg/mL (≈ 2.64 µM)
- MIC ([2]; GC2231, read-out: MINIMAL INHIBITORY CONCENTRATION MIC, pre-incubated in Water): > 64 µg/mL
- MIC ([3]; GC2232, read-out: MINIMAL INHIBITORY CONCENTRATION MIC, pre-incubated in Human Serum): > 64 µg/mL
- MIC ([3]; GC2232, read-out: MINIMAL INHIBITORY CONCENTRATION MIC, pre-incubated in Mouse Serum): 2 µg/mL (≈ 2.64 µM)
- MIC ([3]; GC2232, read-out: MINIMAL INHIBITORY CONCENTRATION MIC, pre-incubated in Water): > 64 µg/mL
- MIC ([4]; GC2233, read-out: MINIMAL INHIBITORY CONCENTRATION MIC, pre-incubated in Human Serum): > 64 µg/mL
- MIC ([4]; GC2233, read-out: MINIMAL INHIBITORY CONCENTRATION MIC, pre-incubated in Mouse Serum): 2 µg/mL (≈ 2.64 µM)
- MIC ([4]; GC2233, read-out: MINIMAL INHIBITORY CONCENTRATION MIC, pre-incubated in Water): > 64 µg/mL
- MIC ([5]; GC2234, read-out: MINIMAL INHIBITORY CONCENTRATION MIC, pre-incubated in Human Serum): > 64 µg/mL
- MIC ([5]; GC2234, read-out: MINIMAL INHIBITORY CONCENTRATION MIC, pre-incubated in Mouse Serum): 2 µg/mL (≈ 2.64 µM)
- MIC ([5]; GC2234, read-out: MINIMAL INHIBITORY CONCENTRATION MIC, pre-incubated in Water): > 64 µg/mL
- MIC ([6]; GC2270, read-out: MINIMAL INHIBITORY CONCENTRATION MIC, pre-incubated in Human Serum): > 64 µg/mL
- MIC ([6]; GC2270, read-out: MINIMAL INHIBITORY CONCENTRATION MIC, pre-incubated in Mouse Serum): 2 µg/mL (≈ 2.64 µM)
- MIC ([6]; GC2270, read-out: MINIMAL INHIBITORY CONCENTRATION MIC, pre-incubated in Water): > 64 µg/mL
- MIC ([7]; GC2271, read-out: MINIMAL INHIBITORY CONCENTRATION MIC, pre-incubated in Human Serum): > 64 µg/mL
- MIC ([7]; GC2271, read-out: MINIMAL INHIBITORY CONCENTRATION MIC, pre-incubated in Mouse Serum): 2 µg/mL (≈ 2.64 µM)
- MIC ([7]; GC2271, read-out: MINIMAL INHIBITORY CONCENTRATION MIC, pre-incubated in Water): > 64 µg/mL
- MIC ([8]; GC3226, read-out: MINIMAL INHIBITORY CONCENTRATION MIC, pre-incubated in Human Serum): > 64 µg/mL
- MIC ([8]; GC3226, read-out: MINIMAL INHIBITORY CONCENTRATION MIC, pre-incubated in Mouse Serum): 4 µg/mL (≈ 5.28 µM)
- MIC ([8]; GC3226, read-out: MINIMAL INHIBITORY CONCENTRATION MIC, pre-incubated in Water): > 64 µg/mL
- MIC ([9]; GC2203, read-out: MINIMAL INHIBITORY CONCENTRATION MIC, pre-incubated in Human Serum): > 64 µg/mL
- MIC ([9]; GC2203, read-out: MINIMAL INHIBITORY CONCENTRATION MIC, pre-incubated in Mouse Serum): 2 µg/mL (≈ 2.64 µM)
- MIC ([9]; GC2203, read-out: MINIMAL INHIBITORY CONCENTRATION MIC, pre-incubated in Water): > 64 µg/mL
- MIC ([10]; GC2214, read-out: MINIMAL INHIBITORY CONCENTRATION MIC, pre-incubated in Human Serum): > 64 µg/mL
- MIC ([10]; GC2214, read-out: MINIMAL INHIBITORY CONCENTRATION MIC, pre-incubated in Mouse Serum): > 64 µg/mL
- MIC ([10]; GC2214, read-out: MINIMAL INHIBITORY CONCENTRATION MIC, pre-incubated in Water): > 64 µg/mL
- MIC ([11]; GC6466, read-out: MINIMAL INHIBITORY CONCENTRATION MIC, pre-incubated in Human Serum): 2 µg/mL (≈ 2.64 µM)
- MIC ([11]; GC6466, read-out: MINIMAL INHIBITORY CONCENTRATION MIC, pre-incubated in Mouse Serum): 2 µg/mL (≈ 2.64 µM)
- MIC ([11]; GC6466, read-out: MINIMAL INHIBITORY CONCENTRATION MIC, pre-incubated in Water): 2 µg/mL (≈ 2.64 µM)
- MIC ([12]; GC2216, read-out: MINIMAL INHIBITORY CONCENTRATION MIC, pre-incubated in Human Serum): 2 µg/mL (≈ 2.64 µM)
- MIC ([12]; GC2216, read-out: MINIMAL INHIBITORY CONCENTRATION MIC, pre-incubated in Mouse Serum): 2 µg/mL (≈ 2.64 µM)
- MIC ([12]; GC2216, read-out: MINIMAL INHIBITORY CONCENTRATION MIC, pre-incubated in Water): 2 µg/mL (≈ 2.64 µM)
- MIC ([13]; GC6335, read-out: MINIMAL INHIBITORY CONCENTRATION MIC, pre-incubated in Human Serum): 4 µg/mL (≈ 5.28 µM)
- MIC ([13]; GC6335, read-out: MINIMAL INHIBITORY CONCENTRATION MIC, pre-incubated in Mouse Serum): 2 µg/mL (≈ 2.64 µM)
- MIC ([13]; GC6335, read-out: MINIMAL INHIBITORY CONCENTRATION MIC, pre-incubated in Water): 4 µg/mL (≈ 5.28 µM)
- MIC ([14]; GC6469, read-out: MINIMAL INHIBITORY CONCENTRATION MIC, pre-incubated in Human Serum): 2 µg/mL (≈ 2.64 µM)
- MIC ([14]; GC6469, read-out: MINIMAL INHIBITORY CONCENTRATION MIC, pre-incubated in Mouse Serum): 2 µg/mL (≈ 2.64 µM)
- MIC ([14]; GC6469, read-out: MINIMAL INHIBITORY CONCENTRATION MIC, pre-incubated in Water): 4 µg/mL (≈ 5.28 µM)
- MIC ([15]; GC2265, read-out: MINIMAL INHIBITORY CONCENTRATION MIC, pre-incubated in Human Serum): 2 µg/mL (≈ 2.64 µM)
- MIC ([15]; GC2265, read-out: MINIMAL INHIBITORY CONCENTRATION MIC, pre-incubated in Mouse Serum): 2 µg/mL (≈ 2.64 µM)
- MIC ([15]; GC2265, read-out: MINIMAL INHIBITORY CONCENTRATION MIC, pre-incubated in Water): 4 µg/mL (≈ 5.28 µM)
- MIC ([16]; GC4556, read-out: MINIMAL INHIBITORY CONCENTRATION MIC, pre-incubated in Human Serum): 4 µg/mL (≈ 5.28 µM)
- MIC ([16]; GC4556, read-out: MINIMAL INHIBITORY CONCENTRATION MIC, pre-incubated in Mouse Serum): 2 µg/mL (≈ 2.64 µM)
- MIC ([16]; GC4556, read-out: MINIMAL INHIBITORY CONCENTRATION MIC, pre-incubated in Water): 4 µg/mL (≈ 5.28 µM)
- MIC ([17]; GC2243, read-out: MINIMAL INHIBITORY CONCENTRATION MIC, pre-incubated in Human Serum): 4 µg/mL (≈ 5.28 µM)
- MIC ([17]; GC2243, read-out: MINIMAL INHIBITORY CONCENTRATION MIC, pre-incubated in Mouse Serum): 2 µg/mL (≈ 2.64 µM)
- MIC ([17]; GC2243, read-out: MINIMAL INHIBITORY CONCENTRATION MIC, pre-incubated in Water): 4 µg/mL (≈ 5.28 µM)
- MIC ([18]; GC4563, read-out: MINIMAL INHIBITORY CONCENTRATION MIC, pre-incubated in Human Serum): 4 µg/mL (≈ 5.28 µM)
- MIC ([18]; GC4563, read-out: MINIMAL INHIBITORY CONCENTRATION MIC, pre-incubated in Mouse Serum): 1 µg/mL (≈ 1.32 µM)
- MIC ([18]; GC4563, read-out: MINIMAL INHIBITORY CONCENTRATION MIC, pre-incubated in Water): 2 µg/mL (≈ 2.64 µM)
- MIC ([19]; 20 h, read-out: Range of MIC, E. coli (Mouse Serum)): 2 to 8 µg/mL (≈ 2.64 to 10.6 µM)
- MIC ([19]; read-out: Minimum inhibitory concentration (MIC), E. coli (Human Serum)): > 64 µg/mL
- MIC ([19]; read-out: Minimum inhibitory concentration (MIC), E. coli (water)): > 64 µg/mL
- MIC ([19]; read-out: Range of MIC, E. coli (Water)): > 64 µg/mL
- MIC ([20]; MRSA, read-out: Range of MIC, Staph (Mouse Serum)): 2 µg/mL (≈ 2.64 µM)
- MIC ([20]; MRSA, read-out: Range of MIC, Staph (Water)): 2 to 4 µg/mL (≈ 2.64 to 5.28 µM)
- MIC ([20]; read-out: Minimum inhibitory concentration (MIC), Staph (Human Serum)): 2 to 4 µg/mL (≈ 2.64 to 5.28 µM)
- MIC ([20]; read-out: Minimum inhibitory concentration (MIC), Staph (Water)): 2 to 4 µg/mL (≈ 2.64 to 5.28 µM)
SMILES: CCC(C)(C)C(=O)OCOC(=O)N(CC(=O)Nc1cc(N(C)C)c2c(c1O)C(=O)C1=C(O)[C@]3(O)C(=O)C(C(N)=O)=C(O)[C@@H](N(C)C)[C@@H]3C[C@@H]1C2)C(C)(C)C [Example 44, ({[(2-{[(5aR,6aS,7S,10aS)-9-(aminocarbonyl)-4,7-bis(dimethylamino)-1,8,10a,11-tetrahydroxy-10,12-dioxo-5,5a,6,6a,7,10,10a,12-octahydrotetracen-2-yl]amino}-2-oxoethyl)(tert-butyl)amino]carbonyl}oxy)methyl 2,2-dimethylbutanoate]
